Several values for one entry are separate records, joined by “and”; a condition that tells them apart may be missing. Equal values may be shown once.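 Assay format: 96-well plates, 48-hour exposure. TGI marks complete inhibition of growth.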

One experiment relates to ACHN renal. Put plainly: inhibition of tumour cell growth, NCI panel, 48 h.
`C[Si](C)(C)C1(Sc2ccccc2)SCCCS1` registered a TGI of over 100 µM.

`OCc1ccc(-c2ccc(-c3ccc(CO)s3)o2)s1` yielded a TGI of over 94.1 µM.

Consider `c1ccc(COc2cccc3ccc[n+](Cc4ccccc4)c23)cc1`, for which the TGI is 52.7 µM.

As to `CCOC(=O)C(=C=C=C(c1ccccc1)c1ccccc1)C(=O)OCC`, the TGI was 36.7 µM.

As to `CC1=CC(O)(c2ccc(-c3ccccc3Cl)cc2)OC1=O` (stereo unspecified), the TGI is over 100 µM.

`C/C(=N\NC(=S)NC(CCC(=O)O)C(=O)O)c1ccccn1` (stereo unspecified): the TGI is over 100 µM.

`C#CC1(O)CCC2C3CCc4cc(Oc5nc(F)nc(-c6c7ccccc7c7sc8ccccc8n67)n5)ccc4C3CC[C@@]21C` (stereo partly specified) returned a TGI of over 100 µM.

Turning to `Cc1ccc(NC(=O)c2cc3cc(N=Nc4ccccc4C(=O)O)ccc3oc2=O)cc1`, the TGI is over 100 µM.

`COc1ccc(S(=O)(=O)NNS(C)(=O)=O)cc1` showed a TGI of over 100 µM.

On to `O=C(/C=C\c1ccc(Cl)c(Cl)c1)c1ccc(Cl)cc1Cl`, for which the TGI was found to be 31.6 µM.

`CC(C)C(C)/C=C\C(C)C1CCC2C3=CC=C4CC(O)CCC4(C)C3CCC21C` (stereo unspecified) returned a TGI of over 65.7 µM.

`CC(=O)/C(=C\c1cccc([N+](=O)[O-])c1)C(=O)Nc1ccccc1C` registered a TGI of over 100 µM.

`COC(OC)C(C)CC(=O)N(C)C` (stereo unspecified) had a TGI of over 100 µM.

Another experiment deals with NCI-H460 lung. Briefly: inhibition of tumour cell growth, NCI panel, 48 h.
As for `O=c1cc(-c2ccccc2)oc2cc(OCCCOc3ccc4c(=O)cc(-c5ccccc5)oc4c3)ccc12`, the TGI is over 100 µM.

In turn, `COc1cc2c(c(OC)c1OC)-c1ccc(OC)c(=O)cc1C(NC(=O)c1ccc(N=[N+]=[N-])cc1)CC2` (stereo unspecified) yielded a TGI of 0.0613 µM.

`Clc1ccc(C(c2ccc(Cl)cc2)c2ccccn2)cc1` registered a TGI of 34.2 µM.

For `CC(C)=Cc1cc(C(=O)Nc2ccc(Cl)c(Cl)c2)nc(N)n1`, the TGI was over 100 µM.

In turn, `Cn1cnc([N+](=O)[O-])c1Sc1nc2ccccc2[nH]1` showed a TGI of 64.9 µM.

As for `CCCCCCN(CCCCCC)C(=O)Cc1c2n(c3ccccc13)Cc1ccccc1-2`, the TGI is over 100 µM.

As to `CCCCCCCCC/C=C1\CCC(CN2CCOCC2)C1=O` (stereo unspecified), the TGI stood at 21.1 µM.

Turning to `CC(=O)OC1COC(n2ccc3cc(Br)c([N+](=O)[O-])cc32)C(OC(C)=O)C1OC(C)=O` (stereo unspecified), the TGI is 69.5 µM.

The compound `CC(=O)OC1=CC(n2cc(F)c(=O)[nH]c2=O)OC(C)C1=O` (stereo unspecified) showed a TGI of over 100 µM.

`CCOC(=O)NC(=O)c1cn(CCCO)c(=O)[nH]c1=O` displayed a TGI of over 100 µM.

Compound `CN(C)c1nc(=Nc2ccc(N=c3nc(N(C)C)ss3)cc2)ss1` came in with a TGI of over 100 µM.

Compound `CSc1nc(NC2OCC(OC(C)=O)C(OC(C)=O)C2OC(C)=O)c(N=CC=Nc2c(NC3OCC(OC(C)=O)C(OC(C)=O)C3OC(C)=O)nc(SC)[nH]c2=O)c(=O)[nH]1` (stereo unspecified) yielded a TGI of over 100 µM.

For `CCc1cc(Cc2cc(CC)c(NC(=O)C(=O)Cc3ccccn3)c(CC)c2Cl)c(Cl)c(CC)c1NC(=O)C(=O)Cc1ccccn1`, the TGI was over 100 µM.

Compound `C[Si](C)(C)C1(Sc2ccccc2)SCCCS1` displayed a TGI of over 100 µM.

The compound `OCc1ccc(-c2ccc(-c3ccc(CO)s3)o2)s1` showed a TGI of 2.89 µM.

In the case of `c1ccc(COc2cccc3ccc[n+](Cc4ccccc4)c23)cc1`, the TGI amounted to 35.7 µM.

In turn, `CCOC(=O)C(=C=C=C(c1ccccc1)c1ccccc1)C(=O)OCC` displayed a TGI of 46.5 µM.

The compound `CC1=CC(O)(c2ccc(-c3ccccc3Cl)cc2)OC1=O` (stereo unspecified) had a TGI of over 100 µM.

Consider `C/C(=N\NC(=S)NC(CCC(=O)O)C(=O)O)c1ccccn1` (stereo unspecified), for which the TGI was over 100 µM.

For the compound `C#CC1(O)CCC2C3CCc4cc(Oc5nc(F)nc(-c6c7ccccc7c7sc8ccccc8n67)n5)ccc4C3CC[C@@]21C` (stereo partly specified), the TGI was over 100 µM.

The compound `Cc1ccc(NC(=O)c2cc3cc(N=Nc4ccccc4C(=O)O)ccc3oc2=O)cc1` had a TGI of over 100 µM.

For `O=C(/C=C\c1ccc(Cl)c(Cl)c1)c1ccc(Cl)cc1Cl`, the TGI was 54.8 µM.

Compound `CC(C)C(C)/C=C\C(C)C1CCC2C3=CC=C4CC(O)CCC4(C)C3CCC21C` (stereo unspecified) returned a TGI of over 53.3 µM.

`CC(=O)/C(=C\c1cccc([N+](=O)[O-])c1)C(=O)Nc1ccccc1C`: the TGI was over 100 µM.

The compound `COC(OC)C(C)CC(=O)N(C)C` (stereo unspecified) gave a TGI of over 100 µM.

Another experiment relates to MOLT-4 leukemia. Briefly: inhibition of tumour cell growth, NCI panel, 48 h.
`O=c1cc(-c2ccccc2)oc2cc(OCCCOc3ccc4c(=O)cc(-c5ccccc5)oc4c3)ccc12`: the TGI was over 100 µM.

The compound `COc1cc2c(c(OC)c1OC)-c1ccc(OC)c(=O)cc1C(NC(=O)c1ccc(N=[N+]=[N-])cc1)CC2` (stereo unspecified) registered a TGI of 9.82 µM.

Turning to `Clc1ccc(C(c2ccc(Cl)cc2)c2ccccn2)cc1`, the TGI came out at 56.6 µM.

The compound `CC(C)=Cc1cc(C(=O)Nc2ccc(Cl)c(Cl)c2)nc(N)n1` displayed a TGI of over 100 µM.

`Cn1cnc([N+](=O)[O-])c1Sc1nc2ccccc2[nH]1` displayed a TGI of 29.9 µM.

`CCCCCCN(CCCCCC)C(=O)Cc1c2n(c3ccccc13)Cc1ccccc1-2` displayed a TGI of over 100 µM.

`CCCCCCCCC/C=C1\CCC(CN2CCOCC2)C1=O` (stereo unspecified) registered a TGI of 5.84 µM.

In turn, `CC(=O)OC1=CC(n2cc(F)c(=O)[nH]c2=O)OC(C)C1=O` (stereo unspecified) gave a TGI of over 100 µM.

Compound `CCOC(=O)NC(=O)c1cn(CCCO)c(=O)[nH]c1=O` came in with a TGI of over 100 µM.

For `CN(C)c1nc(=Nc2ccc(N=c3nc(N(C)C)ss3)cc2)ss1`, the TGI stood at 51.3 µM.

`CSc1nc(NC2OCC(OC(C)=O)C(OC(C)=O)C2OC(C)=O)c(N=CC=Nc2c(NC3OCC(OC(C)=O)C(OC(C)=O)C3OC(C)=O)nc(SC)[nH]c2=O)c(=O)[nH]1` (stereo unspecified): the TGI is over 100 µM.

Compound `CCc1cc(Cc2cc(CC)c(NC(=O)C(=O)Cc3ccccn3)c(CC)c2Cl)c(Cl)c(CC)c1NC(=O)C(=O)Cc1ccccn1` gave a TGI of over 100 µM.

On to `C[Si](C)(C)C1(Sc2ccccc2)SCCCS1`, for which the TGI is 85.1 µM.

Regarding `OCc1ccc(-c2ccc(-c3ccc(CO)s3)o2)s1`, the TGI is 71.5 µM.

Compound `c1ccc(COc2cccc3ccc[n+](Cc4ccccc4)c23)cc1` had a TGI of 51.8 µM.

With `O=S1(=O)OCCOS(=O)(=O)C1Br`, the TGI was over 100 µM.

Regarding `CCOC(=O)C(=C=C=C(c1ccccc1)c1ccccc1)C(=O)OCC`, the TGI was found to be 30.8 µM.

Regarding `CC1=CC(O)(c2ccc(-c3ccccc3Cl)cc2)OC1=O` (stereo unspecified), the TGI is over 100 µM.

Consider `C/C(=N\NC(=S)NC(CCC(=O)O)C(=O)O)c1ccccn1` (stereo unspecified), for which the TGI was over 100 µM.

In the case of `C#CC1(O)CCC2C3CCc4cc(Oc5nc(F)nc(-c6c7ccccc7c7sc8ccccc8n67)n5)ccc4C3CC[C@@]21C` (stereo partly specified), the TGI was over 100 µM.

`Cc1ccc(NC(=O)c2cc3cc(N=Nc4ccccc4C(=O)O)ccc3oc2=O)cc1` came in with a TGI of over 100 µM.

`COc1ccc(S(=O)(=O)NNS(C)(=O)=O)cc1` had a TGI of over 100 µM.

With `O=C(/C=C\c1ccc(Cl)c(Cl)c1)c1ccc(Cl)cc1Cl`, the TGI is 7.86 µM and 48.4 µM.

`CC(C)C(C)/C=C\C(C)C1CCC2C3=CC=C4CC(O)CCC4(C)C3CCC21C` (stereo unspecified) displayed a TGI of 58.3 µM.

Turning to `CC(=O)/C(=C\c1cccc([N+](=O)[O-])c1)C(=O)Nc1ccccc1C`, the TGI was over 100 µM.

In the case of `CCN1c2ccccc2C(C(SC)S(=O)(=O)c2ccc(C)cc2)c2c1[nH]c(=O)n(C)c2=O` (stereo unspecified), the TGI was over 100 µM.

Compound `COC(OC)C(C)CC(=O)N(C)C` (stereo unspecified) showed a TGI of over 100 µM.

A further experiment relates to NCI-H23 lung. Put plainly: inhibition of tumour cell growth, NCI panel, 48 h.
Compound `O=c1cc(-c2ccccc2)oc2cc(OCCCOc3ccc4c(=O)cc(-c5ccccc5)oc4c3)ccc12` had a TGI of over 100 µM.

Source of the values: PubChem BioAssay (NCI).
